Results from ChEMBL document CHEMBL3792380, “A sub-milligram-synthesis protocol for in vitro screening of HDAC11 inhibitors” (Bioorg Med Chem Lett, 2016).

Target: T1, Histone deacetylase 11 (Homo sapiens, UniProt Q96DB2)
T1 sequence (Q96DB2 whole entry): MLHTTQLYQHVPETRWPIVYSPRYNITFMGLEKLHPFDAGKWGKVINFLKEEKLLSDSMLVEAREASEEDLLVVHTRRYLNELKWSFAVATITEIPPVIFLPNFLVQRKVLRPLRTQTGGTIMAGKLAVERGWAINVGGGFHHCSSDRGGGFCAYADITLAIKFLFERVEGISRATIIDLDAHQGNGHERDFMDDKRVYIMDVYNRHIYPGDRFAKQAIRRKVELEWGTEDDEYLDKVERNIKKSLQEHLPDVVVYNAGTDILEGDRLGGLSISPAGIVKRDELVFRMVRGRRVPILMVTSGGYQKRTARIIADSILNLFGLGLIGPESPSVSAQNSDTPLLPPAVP
Experiment: Inhibition of His-tagged human HDAC11 expressed in Sf9 cells using Ac-Arg-Gly-Lys(Ac)-AMC as substrate by fluorometric assay

IC50: 1.2 µM
Compound: O=C(/C=C/c1cn([C@H]2C[C@@H](CO)N(Cc3ccccc3)C2)nn1)NO
